{
  "source": "patent US11357779B2",
  "about": "(G1 Therapeutics, Inc., priority 2018, dated 2022)",
  "assay": "Apparent volume of distribution (Vd/F)",
  "assay_type": "in vivo",
  "settings": "human, plasma, oral; 200 mg QD of compound II",
  "experimental": "“Vd/F” (Liters) as used herein means the theoretical volume that would be necessary to contain the total amount of an administered drug at the same concentration that it is observed in the blood plasma. It is generally defined as the distribution of a medication between plasma and the rest of the body after oral or parenteral dosing. “Vd/F” as used herein is calculated by using the terminal elimination rate constant, which is derived mathematically from the concentration vs time curve to extrapolate a value of plasma concentration at time zero. Volume of distribution for oral drugs is normally expressed as Vd/F or Vz/F. The skilled artisan is familiar with calculating Vd/F or Vz/F.\nThe apparent volume of distribution (Vd/F) was calculated from the terminal rate constant (ke) derived from the plasma concentration-versus-time data provided for Compound I in Example 1 when dosed with 200 mg QD of Form B of Compound II.",
  "data": [
    {"smiles": "CC(C)N1CCN(c2ccc(Nc3ncc4cc5n(c4n3)C3(CCCCC3)CNC5=O)nc2)CC1", "note": "[Compound I, 2′-((5-(4-isopropylpiperazin-1-yl)pyridin-2-yl)amino)-7′,8′-dihydro-6′H-spiro[cyclohexane-1,9′-pyrazino[1′,2′:1,5]pyrrolo[2,3-d]pyrimidin]-6′-one]", "values": [
      {"measurement": "Vd/F", "result": 15200, "unit": "L"}
    ]}
  ]
}
